According to PubChem BioAssay AID1996:
≈ marks a conversion by molar mass, not a printed value.

Conditions: buffer; pH 7.4; 200.0 µM

Row | solubility kinetic | Structure (SMILES)
1 | 2.9 µg/mL (≈ 10.2 µM) | COc1ccccc1-n1c(-c2ccc(F)cc2)coc1=O
2 | > 34.2 µg/mL | NC(=S)N(c1ccccc1)c1ccccc1
3 | 42.8 µg/mL (≈ 143 µM) | COC(=O)C1=C(C)N(CCc2c[nH]c3ccccc23)C(=O)C1
4 | > 39.2 µg/mL | CC(Sc1nccn1C)C(=O)Nc1ccccc1 (configuration not stated)
5 | 29.6 µg/mL (≈ 98.6 µM) | COc1ccc(-c2noc(=O)n2Cc2ccccc2F)cc1
6 | > 42.6 µg/mL | O=S(=O)(Nc1ccc2ccccc2n1)c1ccccc1
7 | > 38.4 µg/mL | COc1cccc(C(C)NC(=O)c2ccncc2)c1 (configuration not stated)
8 | 11.5 µg/mL (≈ 32.6 µM) | Cc1ccc(NC(=O)C2CCCN2C(=O)OCc2ccccc2)cc1C (configuration not stated)
9 | > 43.3 µg/mL | Cc1nc2ccccc2c(N)c1C(=O)/C=C/c1ccccc1
10 | > 38.4 µg/mL | O=C1CSC(c2ccccc2)N1c1cccnc1 (configuration not stated)
11 | 22.8 µg/mL (≈ 77.2 µM) | COc1ccc(O)c(/C=C(\C#N)C(=O)Nc2ccccn2)c1
12 | > 38 µg/mL | O=S(=O)(Nc1ncccn1)c1ccc(F)cc1
13 | 2.4 µg/mL (≈ 7.35 µM) | Cc1ccc(NC(=O)C(C)NC(=O)OCc2ccccc2)cc1C (configuration not stated)
14 | 4.6 µg/mL (≈ 14.6 µM) | O=C(CN1C(=O)c2ccccc2C1=O)Nc1ccc(Cl)cn1
15 | 32.1 µg/mL (≈ 122 µM) | COC(=O)c1ccccc1Nc1ccnc(Cl)n1
16 | > 39.7 µg/mL | COc1ccc(CNC(=O)c2ccc[nH]2)cc1Cl
17 | > 44.8 µg/mL | COc1ccc(OC)c(C(O)c2nc3ccccc3n2C)c1 (configuration not stated)
18 | > 47 µg/mL | COC(=O)CC(c1ccccc1F)N1Cc2ccccc2C1=O (configuration not stated)

Row | solubility kinetic | Structure (SMILES)
19 | < 0.4 µg/mL | COc1ccccc1NC(=O)c1ccccc1NC(=O)c1cccs1
20 | > 44 µg/mL | O=C(COC(=O)Cc1ccsc1)Nc1cccc(F)c1
21 | > 73.4 µg/mL | CC(C(=O)Nc1ccc(C#N)cc1)N(C)CC(=O)N(C)c1c(N)n(Cc2ccccc2)c(=O)[nH]c1=O (configuration not stated)
22 | > 55.7 µg/mL | CC(C)(CN=C1NS(=O)(=O)c2ccccc21)CNC(=O)c1ccccc1
23 | 47.1 µg/mL (≈ 145 µM) | COc1ccc(C(=O)NCC2(c3ccccc3)CCOCC2)cc1
24 | > 47.3 µg/mL | CC(C)CNC(=O)CN1C(=O)NC2(CCc3ccccc32)C1=O (configuration not stated)
25 | 21.9 µg/mL (≈ 77.3 µM) | Cc1ccc(C2SCC(=O)N2Cc2ccccc2)cc1 (configuration not stated)
26 | > 40.4 µg/mL | Cc1ccc(OCC(=O)NC(C)c2ccccc2)cc1 (configuration not stated)
27 | < 0.3 µg/mL | Cc1ccc(C#N)c(SCc2ccccc2F)n1
28 | > 40.8 µg/mL | O=C(NOCc1ccccc1)c1ccc([N+](=O)[O-])cc1
29 | > 40.6 µg/mL | CN1CC(C(=O)Nc2ccc(F)c(Cl)c2)CC1=O (configuration not stated)
30 | > 49.7 µg/mL | CCNC(=O)COc1ncnc2scc(-c3ccc(F)cc3)c12
31 | < 0.5 µg/mL | Cc1cc2cc(OCc3ccccc3)ccc2n1C
32 | 11.2 µg/mL (≈ 39.4 µM) | Cc1ccc(-c2c[nH]c(=S)n2-c2ccccc2F)cc1
33 | > 37.5 µg/mL | CNC(=O)N1c2ccccc2C=Cc2ccccc21
34 | 0.8 µg/mL (≈ 2.21 µM) | COc1cc2ccccc2cc1C(=O)Nc1ccc(N2CCOCC2)cc1
35 | 1.4 µg/mL (≈ 4.91 µM) | CC(=O)c1c(O)c2ccccc2n(C2CCCCC2)c1=O

The remaining lines, values behind:

Row | Structure (SMILES) | solubility kinetic
36 | CC(C)c1ccc(C(=O)NCCCN2CCOCC2)cc1 | > 43.6 µg/mL
37 | COc1ccc(C2(c3ccc(OC)cc3)NC(=O)N(CC(=O)Nc3cc(C)on3)C2=O)cc1 | 27.4 µg/mL (≈ 60.8 µM)
38 | Cc1ccc(-c2csc(NS(=O)(=O)c3cccc(F)c3)n2)o1 | > 50.8 µg/mL
39 | CCCc1cc(=O)[nH]c(SC/C=C/c2ccccc2)n1 | 1.9 µg/mL (≈ 6.63 µM)
40 | CC1(C)Cc2c(sc3nc(SCC(=O)O)nc(N)c23)CO1 | > 48.8 µg/mL
41 | Cc1ccccc1OCC(=O)OC(C)C(=O)NC1CCCC1 (configuration not stated) | > 45.8 µg/mL
42 | O=C(COc1ccc2c3c(c(=O)oc2c1)CCC3)N1CCCC1 | 15.8 µg/mL (≈ 50.4 µM)
43 | NC(=O)C1CCCCc2c1[nH]c1ccc(Cl)cc21 (configuration not stated) | > 39.4 µg/mL
44 | Cc1nc([N+](=O)[O-])cn1CC(=O)c1ccc(OC(F)(F)F)cc1 | 3.3 µg/mL (≈ 10 µM)
45 | O=C(COC(=O)[C@@H]1CCCN1C(=O)c1cccs1)Nc1ccc(Br)cc1 | 2.4 µg/mL (≈ 5.49 µM)
46 | CCCCC(=O)Nc1cc(-c2nc3ncccc3o2)ccc1C | 4 µg/mL (≈ 12.9 µM)
47 | CC(C)(CNC(=O)Cc1ccc(Cl)cc1Cl)N1CCCCC1 | > 51.5 µg/mL
48 | O=c1[nH]c2cc(NCCO)c([N+](=O)[O-])cc2[nH]1 | > 35.7 µg/mL
49 | COC(=O)c1cc(C(=O)NC(C)(C)CC(C)(C)C)cc([N+](=O)[O-])c1 | 17.8 µg/mL (≈ 52.9 µM)
50 | CCOC(=O)C1CCCN(CC(O)COCc2ccccc2OC)C1 (configuration not stated) | > 52.7 µg/mL
51 | Cc1cc(C)n(-c2cccc(C(=O)O)c2)n1 | > 32.4 µg/mL
52 | O=C1CC(=O)N(c2ccccc2F)C(=O)N1 | > 33.3 µg/mL
53 | CCc1ccc(C(=O)OCC(=O)N2CCCCCC2)cc1 | 14.5 µg/mL (≈ 50.1 µM)
54 | CC1(C)CC(=O)C(C(O)c2ccccc2)C(C)(C)N1 (configuration not stated) | 35.2 µg/mL (≈ 135 µM)
55 | Cc1cc(C)c(C)c(OCCn2ccnc2)c1 | 31.4 µg/mL (≈ 136 µM)
56 | O=C(NC(=S)N1CCCC1)c1ccc(Cl)cc1Cl | 32.5 µg/mL (≈ 107 µM)
57 | Cc1ccsc1C(=O)OC(C)C(=O)NC1CCCCC1C (configuration not stated) | 6.4 µg/mL (≈ 20.7 µM)
58 | Cc1nnc(SCC(=O)NC(=O)NC(C)C)s1 | > 41.2 µg/mL
59 | Cc1nc(C(F)(F)F)ccc1C(=O)NN1CCOCC1 | > 43.4 µg/mL
60 | Cc1ccc(S(=O)(=O)Nc2cccc(Cl)c2)cc1NC(=O)C1CC1 | > 54.7 µg/mL
61 | COc1ccc(C(=O)Nc2ccc3nc(C)c(C)nc3c2)cc1 | 5.3 µg/mL (≈ 17.2 µM)

Row | Structure (SMILES) | solubility kinetic
62 | COc1ccc(NS(=O)(=O)c2ccc3c(c2)OCCO3)cc1OC | > 52.7 µg/mL
63 | Clc1ccc(SCCCN2CCCCC2)cc1.O=C(O)C(=O)O | > 54 µg/mL
64 | O=C1Nc2ccc(F)cc2C12OCCO2 | 31.3 µg/mL (≈ 150 µM)
65 | CCCCOc1ccc(Cc2cnc(N)nc2N)cc1 | 36.3 µg/mL (≈ 133 µM)
66 | CCC(NC(=S)NCc1ccc(F)cc1)c1ccc(C(C)C)cc1 (configuration not stated) | < 0.4 µg/mL
67 | CCOc1ccc(Nc2nc(NCc3ccco3)nc(N)c2[N+](=O)[O-])cc1 | < 0.1 µg/mL
68 | CCCc1cc(=O)oc2cc(OCC(=O)N3CCC(C(N)=O)CC3)ccc12 | > 55.9 µg/mL
69 | CC1CCC(NCCNC(=O)c2ccco2)CC1 (configuration not stated) | 26.7 µg/mL (≈ 107 µM)
70 | Cc1ccc(C(=O)CCc2ccc(N)cc2)cc1 | 34.9 µg/mL (≈ 146 µM)
71 | Cc1cccc(N2C(=O)C3CCCN3C2=S)c1C (configuration not stated) | 38.4 µg/mL (≈ 147 µM)
72 | Cc1ccc(C23CC4CC(CC(C(=O)NC(C)C(=O)O)(C4)C2)C3)cc1 (configuration not stated) | > 51.2 µg/mL
73 | CC(C)CCN1CCN(Cc2ccc(C(F)(F)F)cc2)CC1CCO (configuration not stated) | > 53.8 µg/mL
74 | Cc1noc(C)c1COC(=O)/C=C/c1ccc(Cl)cc1 | 6.4 µg/mL (≈ 21.9 µM)
75 | CCN(CC)CC(=O)Nc1c(C#N)cnn1-c1ccccc1 | > 44.6 µg/mL
76 | CN(CC(=O)NC1CCCCCC1)S(=O)(=O)c1cnc[nH]1 | > 47.2 µg/mL
77 | CCOC(=O)COc1nc(-c2ccco2)cc(-c2ccco2)c1C#N | 2.8 µg/mL (≈ 8.28 µM)
78 | Cn1c(C(O)c2ccc(Br)cc2)nc(Cl)c1Cl (configuration not stated) | 13.9 µg/mL (≈ 41.4 µM)
79 | Cl.Clc1ccc(-c2ccc(CNCC3CCCO3)o2)cc1 (configuration not stated) | > 49.2 µg/mL
80 | CC(CNS(=O)(=O)c1ccc(Br)cc1)CN(C)C (configuration not stated) | > 50.3 µg/mL
81 | Cn1ccnc1C(=O)c1cccc(Br)c1 | > 39.8 µg/mL
82 | Cc1ccc2oc(=O)c(/C=C(\O)c3ccco3)nc2c1 | 31.7 µg/mL (≈ 118 µM)
83 | CCCSC1=C(C#N)C2(CCCCC2)C(C#N)=C(N)N1 | > 43.3 µg/mL
84 | Cc1cccc(C(=O)NC2CC3CCC(C2)N3C)c1 (configuration not stated) | > 38.8 µg/mL
85 | CS(=O)(=O)c1ccc(Cl)c(NC(=O)CCN2C(=O)NC3(CCCC3)C2=O)c1 | > 62.1 µg/mL
86 | O=C(Cc1ccc(Cl)cc1)Nc1cc(Cl)ccn1 | 3.5 µg/mL (≈ 12.4 µM)
87 | O=C(Nc1ccccc1)N1CCCN(c2c(Cl)cncc2Cl)CC1 | 10.9 µg/mL (≈ 29.8 µM)
